The source of these data is patent US20250195490A1, “ALPHA-METHYLENE AND AMINOMETHYL LACTONES AND LACTAMS FOR TREATMENT OF CLOSTRIDIOIDES DIFFICILE INFECTION (CDI)” (Purdue Research Foundation, priority 2022, published 2025).

For experiment [1], the system named is C. difficile ATCC 43255. In words: CDI mouse recurrence model. The following applies: for signs of disease during therapy / survival by day 11: 10 mg/kg daily for 5 days. Type of experiment: in vivo, C57BL/6 mice. From the text: For mouse recurrence, two models were used for testing the efficacy of aminomethyllactone 27 for preventing recurrence after treatment with vancomycin. The two models used were A—Chen et al model and B— a more aggressive protocol that was developed using modified Chen et al. protocol antibiotic cocktail (applying 3× times the doses of the antibiotics). In brief, groups of 12-weeks-old female C57BL/6 mice were sensitized to CDI by giving either the antibiotic cocktail described above or 3× the dose of antibiotics cocktail in the drinking water for 5 days. Then mice were treated with clindamycin (10 mg/kg) two days after withdrawal of the antibiotic cocktail. One day after clindamycin treatment, mice were infected orally with 1.9×10^6 CFU spore suspension of C. difficile ATCC 43255 [32]. Two hours after infection, animals were divided into groups (n=10), and groups received either Compound 27 (10 mg/kg) or vancomycin (10 mg/kg) by gavage daily for 5 days. Treatment was stopped at day 5, and mice were monitored for an additional 23 days. […] However, from day 9 onward (4 days after vancomycin was discontinued), vancomycin-treated mice developed CDI. By day 11, only 60% of the mice treated with vancomycin had survived in the original protocol (lx antibiotic), and there was 0% survival in the aggressive antibiotic protocol (3× antibiotic). […] Symptomatic recurrence of CDI occurs in approximately 20% of patients and is challenging to treat. In addition to subsequent prolongation of C. difficile shedding and transmission, 1 out of every 5 patients with CDI, who experienced a recurrence of the infection, died within 30 days of diagnosis. Compound 27, which reduces recurrences, can potentially prolong the clinical utility of current antibiotics (vancomycin and fidaxomicin).

The next experiment has as its system E. coli (TolC mutant). In words: MIC by broth microdilution against E. coli (TolC mutant). Type of experiment: cell-based, Escherichia coli. The following applies: aerobic, 37° C., at least 18 hours. As to the method: Method: The minimum inhibitory concentration (MIC) of the compounds and control drugs, linezolid (antibiotic), vancomycin (antibiotic), 5-fluorocytosine (5-FC, antifungal drug), and fluconazole (antifungal drug) was determined using the broth microdilution method according to the guidelines outlined by the Clinical and Laboratory Standards Institute (CLSI) against clinically relevant bacterial (methicillin-resistant Staphylococcus aureus (MRSA), vancomycin-resistant Enterococcus faecalis (VRE), vancomycin-resistant Enterococcus faecium (VRE), Clostridioides difficile and Escherichia coli) and fungal (Candida albicans) strains. A solution equivalent to 0.5 McFarland standard was prepared from each strain and diluted in cation-adjusted Mueller-Hinton broth (for S. aureus and E. coli), tryptone soy broth (for E. faecalis), or brain heart infusion broth (for E. faecium) to achieve a bacterial inoculum of about 5×10^5 CFU/mL. C. difficile strains were cultured in brain heart infusion broth supplemented with hemin and vitamin K. C. albicans was diluted in RPMI medium supplemented with 3-(N-morpholino) propanesulfonic acid to achieve a fungal concentration of about 1.5×10^3 CFU/mL. Compounds and control drugs were added in the first row of the 96-well plates and diluted with media containing bacteria (to achieve a concentration gradient ranging from 128 to 1 μg/mL). For MRSA, VRE, and E. coli strains, plates were then incubated aerobically at 37° C. for at least 18 hours. C. albicans was incubated aerobically at 37° C. for 24 hours. Plates containing C. difficile were incubated anaerobically at […] for 48 hours.
On the technique in general: Broth dilution looks for growth in wells or tubes with falling amounts of substance.

Experiment [2] deals with C. difficile ATCC 43255. In words: Antibiotic-induced C. difficile-associated diarrhea mouse model. The following applies: 10 mg/kg by gavage daily for 5 days; two mouse models (protocols A and B). Type of experiment: in vivo, C57BL/6 mice. The protocol: Preliminary in vivo experiments were carried out in two mouse models of antibiotic-induced C. difficile-associated diarrhea and two recurrence models to ensure the feasibility of using this new class of antibiotic orally against C. difficile infection.
Groups of 12-weeks-old female C57BL/6 mice were sensitized to CDI with two different protocols. A—Mice were given antibiotic cocktail containing gentamicin (0.035 mg/mL), kanamycin (0.4 mg/ml), metronidazole (0.215 mg/mL), colistin (850 U/mL), and vancomycin (0.045 mg/mL) in drinking water for 5 days. Then mice were treated with clindamycin (10 mg/kg) two days after withdrawal of the antibiotic cocktail. One day after clindamycin treatment, mice were infected orally with 1.9×10^6 CFU spore suspension of C. difficile ATCC 43255 [32]. Two hours after infection, animals were divided into groups (n=10), and groups received either vehicle (sterile water), Compound 27 (10 mg/kg), or vancomycin (10 mg/kg) by gavage daily for 5 days. B— In the second protocol mice were sensitized to CDI with cefoperazone (1.5 mg/mL) in the drinking water for 10 days. Afterwards, mice were switched to regular water for 2 days, followed by injecting clindamycin (10 mg/kg) intraperitoneally. One day after clindamycin treatment, mice were infected and treated as group A above.

Consider `COc1cc(C2OC(=O)C(CN3CCCCC3)C2c2ccccc2Br)ccc1OCc1ccccc1` (racemic) [Compound 27], for which the “signs of disease during therapy” value with C. difficile ATCC 43255 [1] was “no signs of disease”. The survival of mice in the experiment on C. difficile ATCC 43255 [1] (28 days, 10 mg/kg oral daily for 5 days) is recorded as 100%. In addition, the “recurrence of CDI” value with C. difficile ATCC 43255 [1] (for 28 days, 10 mg/kg oral daily for 5 days) is listed as “no recurrence”. Besides, the “MIC E. coli (TolC mutant)” value in the experiment on E. coli (TolC mutant) is over 128 µg/mL. In addition, the protection in the experiment on C. difficile ATCC 43255 [2] was determined as 100%.
Take `C=C1C(=O)O[C@H](c2ccccc2O)[C@@H]1c1cccc(C#N)c1` (racemic) [Compound 50]: the “MIC E. coli (TolC mutant)” value with E. coli (TolC mutant) was over 128 µg/mL.
As for `CN[C@H](CC(C)C)C(=O)N[C@H]1C(=O)N[C@@H](CC(N)=O)C(=O)N[C@H]2C(=O)N[C@H]3C(=O)N[C@H](C(=O)N[C@H](C(=O)O)c4cc(O)cc(O)c4-c4cc3ccc4O)[C@H](O)c3ccc(c(Cl)c3)Oc3cc2cc(c3O[C@@H]2O[C@H](CO)[C@@H](O)[C@H](O)[C@H]2O[C@H]2C[C@](C)(N)[C@H](O)[C@H](C)O2)Oc2ccc(cc2Cl)[C@H]1O` [Vancomycin, reference compound], the “signs of disease during therapy” value with C. difficile ATCC 43255 [1] is reported as “no signs of disease”. The “survival by day 11” value in the experiment with C. difficile ATCC 43255 [1] (aggressive antibiotic protocol (3× antibiotic)) came to 0%; in the experiment on C. difficile ATCC 43255 [1] (original protocol (1x antibiotic)), 60%. The “day from which treated mice developed CDI” value in the experiment with C. difficile ATCC 43255 [1] (treatment stopped at day 5) is at least 9 days. The protection in the experiment with C. difficile ATCC 43255 [2] came to 100%.
